From patent US20260242478A1, “ANTIBODIES FOR TARGETING PSMA AND CD28 AND USES THEREOF” (Janux Therapeutics, Inc., priority 2023, published 2026)
Each block holds one sequence with its values, some of them ahead of it.

Key:
[1] = system: anti-CD28 Fab (SEQ ID NOs: 696, 697); experiment: anti-CD28 Fab binding to peptides, ELISA; conditions: for EC50: anti-CD28 Fab
[2] = target: anti-CD28 scFv (disulfide) (SEQ ID NO: 10); experiment: anti-CD28 scFv (disulfide) binding to peptides, ELISA; conditions: Table 27
Description: Peptides were evaluated for their ability to bind to ant-CD28 Fab (SEQ ID NOs: 696.697) or anti-CD28 scFv (disulfide) (SEQ ID NO: 10) in a standard ELISA format as described above.

[3] = target: anti-CD28 scFv (disulfide) (SEQ ID NO: 10) binding to CD28 antigen; experiment: Inhibition of anti-CD28 scFv (disulfide) binding to CD28 by peptides, competition ELISA; conditions: anti-CD28 scFv (disulfide) fixed at 0.3 nM, 0-100 μM peptides
[4] = system: PSMA Fab (SEQ ID NOs: 19, 20); experiment: PSMA Fab binding to peptides, ELISA; conditions: for EC50: PSMA Fab binding to biotinylated peptide, ELISA
Description: Peptides of Table 9 were evaluated for their ability to bind to PSMA Fab in a standard enzyme linked immunosorbent assay (ELISA) format. […] PSMA Fab diluted in buffer was then added to the peptide captured plates. Bound antibody was detected using a standard horse radish peroxidase conjugate secondary antibody.

[5] = system: PSMA Fab (SEQ ID NOs: 19, 20); experiment: Kinetic binding of peptides to PSMA Fab, BLI
Description: Kinetic binding of the peptides of Table 9 to PSMA Fab (SEQ ID NOs: 19, 20) was evaluated using biolayer interferometry (BLI). Briefly, biotinylated peptides were loaded onto a streptavidin coated Octet® V SAX biosensor, quenched in biocytin, and baselined in buffer. […] After a short association period, sensors were transferred into buffer and the dissociation of bound Ab-1 was measured. Association and dissociation signals were recorded in real time and analyzed using a 1:1 binding model within the instrument software. Analysis using a 1:1 binding model enabled the calculation of the on and off rate constant as well as affinity, Kn.

[6] = target: Ab-15 (anti-CD28 scFv of SEQ ID NO: 9); experiment: Ab-15 (anti-CD28 scFv) binding to peptides, ELISA; set-up: species or system human; conditions: Table 20; Ab-15 binding to plate-captured biotinylated peptide or CD28-biotin
Description: Ab-15 diluted in buffer was then added to the peptide captured plates. Bound antibody was detected using a standard horse radish peroxidase conjugate secondary antibody.

[7] = target: anti-CD28 scFv harbored in Ab-15 binding to the CD28 antigen; experiment: Inhibition of Ab-15 binding to CD28 by peptides, competition ELISA; conditions: Table 20; fixed Ab-15 pre-incubated with 0-100 μM titrated peptide, CD28 antigen coated plates
Description: Ab-15 fixed at I nanomolar (nM) concentration was pre-incubated with 0-100 micromolar (μM) titrated peptides. After a short pre-incubation period, the mixture of titrated peptide with fixed Ab-15 were added to the CD28 antigen coated plates. After a short incubation on the plates, bound Ab-15 was detected with a standard horse radish peroxidase conjugated secondary antibody.

[8] = system: anti-CD28 Fab (SEQ ID NOs: 696, 697); experiment: Kinetic binding of peptides to anti-CD28 Fab, BLI; conditions: for kdis / kon: Table 30, BLI; for Off rate t½: Table 26
[9] = target: anti-CD28 scFv (SEQ ID NO: 9); experiment: Kinetic binding of anti-CD28 scFv to peptides, bio-layer interferometry (Octet RED96); conditions: Table 36; anti-CD28 scFv titrated 100-12.5 nM, 200 nM peptide loaded
Description: (§1) Briefly, streptavidin biosensors were loaded with biotinylated peptides and baselined in buffer. […] After a short association period, sensors were transferred into buffer and the dissociation of bound anti-CD28 scFv was measured. The timing and steps of the experiment are shown in the accompanying table. Association and dissociation signals were recorded in real time and analyzed using a 1:1 binding model within the instrument software. Analysis using a 1:1 binding model enabled the calculation of the on and off rate constants as well as affinity, KD.
as §1, with “KD. FIGS. 70A-70F illustrate kinetic binding of anti-CD28 scFv binding to peptides as measured by Octet. FIGS. 70G-70U illustrate kinetic binding of peptides to the anti-CD28 scFv as measured by Octet.” for “KD.”

[10] = target: anti-CD28 Fab (SEQ ID NOs: 696, 697) binding to CD28 antigen; experiment: Inhibition of anti-CD28 Fab binding to CD28 by peptides, competition ELISA (incl. alanine scanning); conditions: Table 25; anti-CD28 Fab fixed at 1 nM, 0-100 μM peptides

Sequence: SCAAGASYAWPYCL [Peptide-92]
binding to the anti-CD28 Fab [1]: strong binding
EC50 ([1]; Table 24): 54 nM
EC50 ([1]; Table 25): 18.9 nM
EC50 [2]: > 1000 nM
IC50 ([3]; Table 27): > 100000 nM

binding to the PSMA Fab [4]: strong binding
EC50 ([4]; Table 38): 5.9 nM
EC50 ([4]; Table 39): 120 nM
Off rate t1/2 ([5]; Table 38, 1:1 binding model): <1 min
Off rate t1/2 ([5]; Table 39, 1:1 binding model): 1.09 min
Sequence: LMKWCTPRWMCAAE [Peptide-179]

Sequence: WCWYYREWVPMTCP [Peptide-88]
EC50 ([1]; Table 24): > 1000 nM
EC50 [2]: > 1000 nM

EC50 [6]: 32.5 nM
IC50 [7]: 4420 nM
Sequence: ADWCPRERWVDCFF [Peptide-19]

kdis [8]: 0.0191 s⁻¹
Sequence: YCEGHLPEYREKCL [Peptide-126]

Sequence: MDWCPRDLWVHCFA [Peptide-41]
EC50 ([1]; Table 24): 490 nM
EC50 [2]: 98.5 nM
Kd [9]: 42.3 nM
kdis [9]: 0.00154 s⁻¹
kon [9]: 36400 M⁻¹ s⁻¹

Sequence: GCQYPWAFDAMSCP [Peptide-80]
EC50 ([1]; Table 24): > 1000 nM
EC50 [2]: > 1000 nM

Sequence: YWSCFQIPFTCFYF [Peptide-75]
EC50 ([1]; Table 24): > 1000 nM
EC50 [2]: > 1000 nM

Sequence: ACDTYFAGMINECF [Peptide-79]
EC50 ([1]; Table 24): 97 nM
EC50 [2]: 73.2 nM

Sequence: YCAGHSPINIGKCL [Peptide-84]
EC50 ([1]; Table 24): 337 nM
EC50 [2]: > 1000 nM

Sequence: YWYCSPSIVRCVLV [Peptide-89]
EC50 ([1]; Table 24): > 1000 nM
EC50 [2]: > 1000 nM

Off rate t1/2 ([5]; Table 39, 1:1 binding model): <1 min
Sequence: MCQWDELNYWMDCD [Peptide-202]

Off rate t1/2 ([5]; Table 39, 1:1 binding model): <1 min
Sequence: QCTWNEKTWWMECE [Peptide-204]

EC50 ([1]; Table 26): 7.1 nM
kdis [8]: 0.028 s⁻¹
kon [8]: 33700 M⁻¹ s⁻¹
Sequence: YCEGHAPEYIAKCL [Peptide-121]

EC50 ([1]; Table 26): 2.1 nM
Off rate t½ [8]: 0.9 min
Sequence: YCEGHLPEYIWKCL [Peptide-135]

IC50 ([3]; Table 29): > 100000 nM
Sequence: SCAAGASYAWPYCA [Peptide-106]

Sequence: WCWDYKLWVPTQCP [Peptide-81]
EC50 ([1]; Table 24): > 1000 nM
EC50 [2]: > 1000 nM

EC50 ([1]; Table 26): 3.2 nM
kdis [8]: 0.0138 s⁻¹
Sequence: YCEGHLPEYRNKCL [Peptide-132]

Sequence: IAVLCQPNWMCAGF [Peptide-180]
binding to the PSMA Fab [4]: strong binding
EC50 ([4]; Table 38): 33 nM
Off rate t1/2 ([5]; Table 38, 1:1 binding model): <1 min
Off rate t1/2 ([5]; Table 39, 1:1 binding model): 0.75 min

Sequence: PDCHTILFKPWCVR [Peptide-90]
EC50 ([1]; Table 24): > 1000 nM
EC50 [2]: > 1000 nM

Sequence: WCWDYREWVPMTCP [Peptide-82]
EC50 ([1]; Table 24): > 1000 nM
EC50 [2]: > 1000 nM

Sequence: YCAGMSTIQLWLKC [Peptide-94]
EC50 ([1]; Table 24): > 1000 nM
EC50 [2]: > 1000 nM

Sequence: FMCLPQNPHPLCFK [Peptide-77]
EC50 ([1]; Table 24): > 1000 nM
EC50 [2]: > 1000 nM

Off rate t1/2 ([5]; Table 39, 1:1 binding model): <1 min
Sequence: MCQWDKINYWMDCD [Peptide-205]

Sequence: WECLKYTEANACTY [Peptide-76]
EC50 ([1]; Table 24): > 1000 nM
EC50 [2]: > 1000 nM

EC50 ([1]; Table 25): > 1000 nM
IC50 [10]: > 100000 nM
Sequence: LCKPGVPYKWPTCL [Peptide-156]

EC50 ([1]; Table 25): > 1000 nM
IC50 [10]: > 100000 nM
Sequence: LCAAGFTYPWPLCL [Peptide-155]

Sequence: WICDKSGSIMLCRA [Peptide-91]
EC50 ([1]; Table 24): > 1000 nM
EC50 [2]: > 1000 nM

Off rate t1/2 ([5]; Table 39, 1:1 binding model): <1 min
Sequence: SKLLCVPPWMCYHV [Peptide-194]

IC50 ([3]; Table 29): > 100000 nM
Sequence: YCAGHAWQYANKCL [Peptide-113]

Off rate t½ [8]: 0.9 min
kdis [8]: 0.0115 s⁻¹
Sequence: YCEGHLPEYIQKCL [Peptide-134]

EC50 ([1]; Table 26): 3.1 nM
kdis [8]: 0.0239 s⁻¹
kon [8]: 25800 M⁻¹ s⁻¹
Sequence: YCEGHLPEYIEKCL [Peptide-120]

Sequence: DCPWLSGFSRPLLC [Peptide-93]
EC50 ([1]; Table 24): > 1000 nM
EC50 [2]: > 1000 nM

EC50 ([1]; Table 26): 1.7 nM
kdis [8]: 0.0118 s⁻¹
Sequence: YCEGHLPEYLAKCL [Peptide-127]

Sequence: PDCQTILFKPWCVR [Peptide-78]
EC50 ([1]; Table 24): > 1000 nM
EC50 [2]: > 1000 nM

Sequence: YCAGHAWQYINKCL [Peptide-87]
binding to the anti-CD28 Fab [1]: strong binding
EC50 ([1]; Table 24): 49 nM
EC50 ([1]; Table 26): 30.6 nM
EC50 [2]: 156 nM
Off rate t½ [8]: 0.7 min
kdis [8]: 0.0202 s⁻¹
kon [8]: 10000 M⁻¹ s⁻¹

EC50 [6]: 32.2 nM
IC50 [7]: 3250 nM
Sequence: CFYAEYYDQVYSFC [Peptide-18]
